≈ marks a conversion by molar mass, not a printed value. Some results are limits rather than exact numbers.

We go through 15 molecules from ChEMBL document CHEMBL4602605, “Fluoroquinolones structural and medicinal developments (2013-2018): Where are we now?” (Bioorg Med Chem, 2019).

Common to all, as to type: functional
Experiment [1] relates to Pseudomonas aeruginosa. The experiment in a line: Antimicrobial activity against Pseudomonas aeruginosa ATCC 43288 incubated for 18 to 24 hrs by microbroth dilution method.
Experiment [2] concerns Yersinia pseudotuberculosis. The experiment can be described thus: Antimicrobial activity against Yersinia pseudotuberculosis ATCC 911 incubated for 18 to 24 hrs by microbroth dilution method. In general terms: Dilution methods test growth across graded concentrations, often in twofold steps.
Experiment [3] concerns Staphylococcus aureus. The experiment can be described thus: Antimicrobial activity against Staphylococcus aureus ATCC 25923 incubated for 18 to 24 hrs by microbroth dilution method.
Another experiment relates to Enterococcus faecalis. The experiment can be described thus: Antimicrobial activity against Enterococcus faecalis ATCC 29212 incubated for 18 to 24 hrs by microbroth dilution method.
Another experiment deals with Bacillus cereus. The experiment in a line: Antimicrobial activity against Bacillus cereus 709 Roma incubated for 18 to 24 hrs by microbroth dilution method.
The test system of experiment [4] is Mycolicibacterium smegmatis. The experiment can be described thus: Antimicrobial activity against Mycobacterium smegmatis ATCC 607 incubated for 48 to 72 hrs by microbroth dilution method.
The test system of experiment [5] is Staphylococcus aureus. The experiment in a line: Antimicrobial activity against methicillin-resistant Staphylococcus aureus ATCC 25923 by microdilution method.
The subject of experiment [6] is Escherichia coli. The experiment can be described thus: Antimicrobial activity against Escherichia coli ATCC […] by microdilution method.
Experiment [7] relates to Escherichia coli. The experiment in a line: Antimicrobial activity against multidrug resistance Escherichia coli ATCC 35218 by microdilution method.
For experiment [8], the system named is Staphylococcus aureus. The experiment in a line: Antimicrobial activity against Staphylococcus aureus ATCC 29213 by microdilution method.
In experiment [9] the test system is Escherichia coli. The experiment can be described thus: Antimicrobial activity against Escherichia coli ATCC 9637 incubated for 24 hrs by CLSI-based broth microdilution method. The following applies: W ATCC 9637, 24 h.
The subject of experiment [10] is Pseudomonas aeruginosa. The experiment in a line: Antimicrobial activity against Pseudomonas aeruginosa ATCC BAA-427 incubated for 24 hrs by CLSI-based broth microdilution method. Particulars: ATCC BAA-427, 24 h.
Experiment [11] relates to Staphylococcus aureus. The experiment can be described thus: Antimicrobial activity against methicillin-resistant Staphylococcus aureus ATCC 700699 incubated for 24 hrs by CLSI-based broth microdilution method. Particulars: ATCC 700699, 24 h.
Experiment [12] has as its system Staphylococcus aureus. The experiment in a line: Antimicrobial activity against gentamicin-resistant Staphylococcus aureus ATCC 33592 incubated for 24 hrs by CLSI-based broth microdilution method. The following applies: ATCC 33592, 24 h.
The next experiment deals with Klebsiella pneumoniae. The experiment can be described thus: Antimicrobial activity against Klebsiella pneumoniae ATCC 27736 incubated for 24 hrs by CLSI-based broth microdilution method. Particulars: ATCC 27736, 24 h.
The subject of experiment [13] is Staphylococcus aureus. The experiment can be described thus: Antimicrobial activity against Staphylococcus aureus ATCC 29213 incubated for 24 hrs by CLSI-based dilution method. Particulars: ATCC 29213, 24 h.
Experiment [14] deals with Staphylococcus aureus. The experiment can be described thus: Antimicrobial activity against Staphylococcus aureus ATCC 25923 incubated for 24 hrs by CLSI-based dilution method. The following applies: ATCC 25923, 24 h.
For experiment [15], the system named is Staphylococcus aureus. The experiment can be described thus: Antimicrobial activity against methicillin-susceptible Staphylococcus aureus ATCC 29213 incubated for 16 hrs by CLSI method. Particulars: ATCC 29213, 16 h.
Experiment [16] has as its system Staphylococcus aureus. The experiment can be described thus: Antimicrobial activity against healthcare-acquired methicillin-resistant Staphylococcus aureus NRS70 incubated for 16 hrs by CLSI method. The following applies: NRS70, 16 h.
Experiment [17] concerns Mycobacterium tuberculosis. The experiment can be described thus: Antimicrobial activity against Mycobacterium tuberculosis H37Rv incubated for 10 days by microbroth dilution method. The following applies: 240 h.

Consider `CCn1cc(C(=O)O)c(=O)c2cc(F)c(N3CCN(Cn4nc(CN5CCN(c6ccc([N+](=O)[O-])cc6)CC5)n(-c5ccccc5)c4=S)CC3)cc21`, for which the MIC (commonly the smallest concentration in the dilution series that meets the test's criterion for growth inhibition) in the experiment on Pseudomonas aeruginosa [1] was 0.03 to 0.24 mg/L (≈ 0.0412 to 0.33 µM); in experiment [2] it was 0.06 mg/L (≈ 0.0824 µM); in the experiment with Staphylococcus aureus [3] it was 0.24 to 0.48 mg/L (≈ 0.33 to 0.66 µM); in the experiment with Enterococcus faecalis, 0.122 to 0.25 mg/L (≈ 0.168 to 0.343 µM); against Bacillus cereus it was 0.12 to 0.24 mg/L (≈ 0.165 to 0.33 µM); in [4], 0.244 to 0.25 mg/L (≈ 0.335 to 0.343 µM).
Regarding `CCN1CCN(N(Cn2nc3c(F)cc4c(=O)c(C(=O)O)cn(C5CC5)c4n3c2=O)N2CCN(CC)CC2)CC1`, the MIC in the experiment with Staphylococcus aureus [5] was at most 0.5 mg/L; against Escherichia coli [6], at most 0.125 mg/L; in the experiment on Escherichia coli [7], at most 0.25 mg/L; against Staphylococcus aureus [8], at most 0.125 mg/L.
With `CCn1cc(C(=O)O)c(=O)c2cc(F)c(-n3cc(CO[C@H]4O[C@H](COC(C)=O)[C@@H](OC(C)=O)[C@H](OC(C)=O)[C@H]4OC(C)=O)nn3)c(F)c21`, the MIC in the experiment on Escherichia coli [9], with Pseudomonas aeruginosa [10], with Staphylococcus aureus [11], in the experiment on Staphylococcus aureus [12], with Klebsiella pneumoniae and with Staphylococcus aureus [13] was over 50 mg/L in each case. The same molecule yielded an MIC in the experiment on Staphylococcus aureus [14] of over 50 mg/L.
As to `O=C(O)c1cn(C2CC2)c2c(cc(F)c3nn(CN(N4CCCCC4)N4CCCCC4)c(=O)n32)c1=O`, the MIC with Staphylococcus aureus [5] is at most 8 mg/L; with Escherichia coli [6], at most 1 mg/L; against Escherichia coli [7] it was at most 4 mg/L; with Staphylococcus aureus [8], at most 1 mg/L.
With `CCn1cc(C(=O)O)c(=O)c2cc(F)c(N3CCN(Cn4nc(CN5CCN(c6ccc([N+](=O)[O-])cc6)CC5)n(-c5ccccc5)c4=O)CC3)cc21`, the MIC with Pseudomonas aeruginosa [1] was 0.24 to 0.48 mg/L (≈ 0.337 to 0.674 µM); in experiment [2], 0.03 to 0.25 mg/L (≈ 0.0421 to 0.351 µM); against Staphylococcus aureus [3], 0.24 to 0.48 mg/L (≈ 0.337 to 0.674 µM); against Enterococcus faecalis it was 0.122 mg/L (≈ 0.171 µM); against Bacillus cereus, 0.03 to 0.25 mg/L (≈ 0.0421 to 0.351 µM); in experiment [4], 0.244 to 0.25 mg/L (≈ 0.343 to 0.351 µM).
Take `CCn1cc(C(=O)O)c(=O)c2cc(F)c(-n3cc(CO[C@H]4O[C@H](COC(C)=O)[C@@H](OC(C)=O)[C@H](OC(C)=O)[C@H]4NC(C)=O)nn3)c(F)c21`: the MIC in the experiment on Escherichia coli [9] is 12.5 mg/L (≈ 18.4 µM); in the experiment on Pseudomonas aeruginosa [10] it was over 50 mg/L; in the experiment with Staphylococcus aureus [11], over 50 mg/L; in the experiment with Staphylococcus aureus [12], 6.25 mg/L (≈ 9.2 µM); against Klebsiella pneumoniae it was 6.25 mg/L (≈ 9.2 µM); in the experiment on Staphylococcus aureus [13], 6.25 mg/L (≈ 9.2 µM). The molecule also showed an MIC with Staphylococcus aureus [14] of 6.25 mg/L (≈ 9.2 µM).
On to `CN1CCN(N(Cn2nc3c(F)cc4c(=O)c(C(=O)O)cn(C5CC5)c4n3c2=O)N2CCN(C)CC2)CC1`, for which the MIC with Staphylococcus aureus [5] is at most 2 mg/L; against Escherichia coli [6], at most 0.25 mg/L; in the experiment on Escherichia coli [7], at most 2 mg/L; with Staphylococcus aureus [8], at most 0.25 mg/L.
As for `CCn1cc(C(=O)O)c(=O)c2cc(F)c(-n3cc(CO[C@H]4O[C@@H](C)[C@H](OC(C)=O)[C@@H](OC(C)=O)[C@H]4OC(C)=O)nn3)c(F)c21`, the MIC is at most 16 mg/L against Staphylococcus aureus [5], at most 4 mg/L in the experiment with Escherichia coli [6], at most 16 mg/L in the experiment on Escherichia coli [7] and at most 4 mg/L in the experiment with Staphylococcus aureus [8].
As for `CCn1cc(C(=O)O)c(=O)c2cc(F)c(-n3cc(CO[C@H]4OC[C@@H](OC(C)=O)[C@@H](OC(C)=O)[C@H]4OC(C)=O)nn3)c(F)c21`, the MIC was 6.25 mg/L (≈ 10.3 µM) in the experiment with Escherichia coli [9]; over 50 mg/L against Pseudomonas aeruginosa [10]; over 50 mg/L in the experiment on Staphylococcus aureus [11]; 3.12 mg/L (≈ 5.13 µM) against Staphylococcus aureus [12]; 3.12 mg/L (≈ 5.13 µM) with Klebsiella pneumoniae; 3.12 mg/L (≈ 5.13 µM) against Staphylococcus aureus [13]. Besides, the MIC in the experiment with Staphylococcus aureus [14] is 3.12 mg/L (≈ 5.13 µM).
For `COc1c(N2CC3CCCCC3C2)c(F)cc2c(=O)c(C(=O)N3CCSC3)cn(C3CC3)c12` (stereo not given), the MIC90 in the experiment on Staphylococcus aureus [15] and with Staphylococcus aureus [16] was 0.79 mg/L (≈ 1.68 µM) each time.
Regarding `CCO/N=C1/CN(CCCn2cc(CN3CCCC4CN(c5c(F)cc6c(=O)c(C(=O)O)cn(C7CC7)c6c5OC)CC43)nn2)c2ccc(F)cc21` (stereo not given), the MIC in experiment [17] was found to be 12.5 mg/L (≈ 17.4 µM).
As to `COc1c(N2CC3=CCCCC3C2)c(F)cc2c(=O)c(C(=O)N3CCSC3)cn(C3CC3)c12` (stereo not given), the MIC90 with Staphylococcus aureus [15] and in the experiment on Staphylococcus aureus [16] was 6.3 mg/L (≈ 13.4 µM) each time.
Consider `COc1c(F)c(F)cc2c(=O)c(C(=O)N3CCSC3)cn(C3CC3)c12`, for which the MIC90 in the experiment with Staphylococcus aureus [15] and in the experiment on Staphylococcus aureus [16] was over 201 mg/L throughout.
In the case of `CCn1cc(C(=O)O)c(=O)c2cc(F)c(-n3cc(CO[C@H]4O[C@H](COC(C)=O)[C@@H](OC(C)=O)[C@H](OC(C)=O)[C@@H]4OC(C)=O)nn3)c(F)c21`, the MIC in the experiment with Escherichia coli [9] was 50 mg/L (≈ 73.5 µM); against Pseudomonas aeruginosa [10], over 50 mg/L; with Staphylococcus aureus [11], over 50 mg/L; against Staphylococcus aureus [12], 12.5 mg/L (≈ 18.4 µM); in the experiment on Klebsiella pneumoniae, 25 mg/L (≈ 36.7 µM); against Staphylococcus aureus [13], 12.5 mg/L (≈ 18.4 µM). This molecule also came in with an MIC in the experiment with Staphylococcus aureus [14] of 12.5 mg/L (≈ 18.4 µM).
Take `COc1c(N2CC3CCCCC3C2)c(F)cc2c(=O)c(C(=O)Nc3nccs3)cn(C3CC3)c12` (stereo not given): the MIC90 against Staphylococcus aureus [15] and against Staphylococcus aureus [16] was over 201 mg/L throughout.
